# From patent US20030216471A1, “Retinoid formulations for aerosolization and inhalation” (priority 2003, published 2003)
# Values joined by “and” are separate entries in the source; they are usually repeats but may differ in a detail not shown here. Identical values can stand only once. “Also recorded” adds a separate entry of the source. Like-named read-outs stand apart in the source and are kept apart here.
# Legend:
# [1] = test system: TGase II; assay: TGase II activity in cultured human breast cancer MCF-7 cells; assay type: cell-based; settings: MCF-7 cells, 10^−6 M, 72 hours, over DMSO
# Method: Cells were harvested and Transglutaminase II activity was measured as described below. Nebulizer solution, inhalation procedures, details of animal housing are described below.
# Cultured cells were placed in 100 μl scraping buffer [A: 2800 μl (400 μl 0.5M Na-Phosphate, 500 μl 0.01M EDTA, 100 μl 1M DTT, 9 ml PBS total 10 ml)+B:700 μl (10 μl 20 mg/ml PMSF 790 μl PBS total 800 μl)] for each dish. Cells were broken by a sonicator and kept in ice until used. TGase II assay was conducted as described below and previously {8217}.
# (§1) Enzyme assay mixtures were prepared by adding 80 μl of SUBSTRATE mixture (322.8 μl H2O, 120 μl 0.5M NaBorate, 60 μl 0.01M EDTA, 60 μl 0.1M CaCl2, 6 μl 1M DTT, 240 μl dimethyl casein, 30 μl Triton X-100, 1.21 μl [^3H]-Putrescine, 120 μl Putrescine) to 20 μl sample, 20 μl scraping buffer for blank control, 20 μl (18 μl scraping buffer+2 μl TGase II) for positive control. Samples were mixed in 15 ml tubes, the tubes were shaken before putting them into a 28° C. water bath for 30 minutes. Reactions were slowed down in an ice bath. 80 μl of the incubation mixture was adsorbed onto paper disks. These were immediately dropped into cold 10% TCA (0.1% Putrescine) and washed with agitation for 7 minutes, followed by 2 additional washes with 5% TCA (0.05% putrescine) for 5-7 minutes, and once more with cold (−20° C.) 95% ethanol for 5 minutes. Paper disks were dried and placed into 5 ml Aquasol, and counted in a Liquid Scintillation Counter. Protein concentration determination was conducted by the Bradford method.
# [2] = test system: TGase II; assay: TGase II assay of rat lung tissue after inhaled 13-cis RA (experiment B); assay type: in vivo
# Method: Male rats (n=23) (Sprague-Dawley from Charles River) were divided into six experimental groups and were given varying amounts of 13-cis RA through an inhalant apparatus once daily for different times each day for 14 days. The experimental groups were as follows (Table 1): 1. Vehicle control: rats (3) inhaled vehicle for 240 minutes; 2. Low dose 13-cis RA: rats (4) inhaled a solution containing 13-cis RA at a concentration of 62.2 μg/liter (inhaled dose 115.0 μg/kg body weight) in 5 minutes; 3. Low-Middle dose 13-cis RA: rats (4) inhaled a solution containing 13-cis RA at a concentration of 62.2 μg/liter (inhaled dose 334.4 μg/kg body weight) in 15 minutes; 4.Middle dose 13-cis RA: rats (4) inhaled a solution containing 13-cis RA at a concentration of 62.2 μg/liter (inhaled dose 1012.3 μg/kg body weight) in 45 minutes; 5. Middle-High dose 13-cis RA: rats (4) inhaled a solution containing 13-cis RA at a concentration of 62.2 μg/liter (inhaled dose 2843.4 μg/kg body weight) in 120 minutes; 6. High dose 13-cis RA:rats (4) inhaled a solution containing 13-cis RA at a concentration of 62.2 μg/liter (inhaled dose 5935.6 μg/kg body weight) in 240 minutes.
# as §1
# Cannon (Cannon et al., 1983).
# [3] = test system: TGase II; assay: TGase II assay of rat liver tissue after inhaled 13-cis RA (experiment B); assay type: in vivo; settings: for TGase II assay, rat liver: 14 days
# Method: The experimental groups were as follows (Table 1): 1. Vehicle control: rats (3) inhaled vehicle for 240 minutes; 2.
# For liver tissue, a piece of approximately 100-400 mg was used. Tissue was diced in small pieces and homogenized in approximately 2 volumes of scraping buffer for 2-3 minutes at 4° C. Samples were centrifuged at 14,000 xg for 30 minutes at 4° C. The supernatant was removed and kept in ice until used.
# as §1
# [4] = test system: RAR γ; assay: RAR induction in lungs of A/J mice exposed to isotretinoin aerosol, RAR γ; assay type: in vivo, mouse; settings: inhaled mid dose, urethane-treated A/J mice
# Method: Antibodies: Polyclonal antibodies to RARα, β and γ (Santa Cruz Biotechnology Inc., San Francisco, Calif.) were used with a BM Chemiluminescence Western Blotting Kit (Mouse/Rabbit) (Boehringer Mannheim Corporation, Indianapolis).
# Experimental Design: Five lungs each from the urethane-treated vehicle, low dose, and mid dose animals were snap frozen in liquid nitrogen and stored at −70° C. for determination of RARs α, β and γ by Western Blot Analysis. […] The lungs were homogenized and the RARs were determined by standard Western Blotting (21, 22).
# Samples: Lung tissue was collected, frozen on dry ice and kept at −70° C. until used. A 500 mg portion was diced in small pieces and homogenized in 300 μl of cold PBS using a hand held homogenizer for 2-3 min. Samples were centrifuged at 500 rpm for 5 min or until the supernatant was clear. The pellet was suspended in 400 μl of cold Buffer A [2 μl 0.5 M EDTA, 10 μl mM EGTA, 50 μl 100 mM PMSF, 10 μl 1M DTT, 10 ml (10 mM HEPES pH 7.9+10 mM KCl)], and left at ice temperature for 15 min. A 25 μl volume of 10% solution of NP−40 was added and the samples were mixed in a vortex vigorously for 10 sec. Samples were centrifuged at 14,000 rpm for 1 min at 4° C. and the pellet was treated once more in this fashion. […]
# [5] = test system: A/J mouse; settings: cited from earlier work; for Efficacy (Carcinogen): 20 weeks, urethane
# [6] = doses used in the MD Anderson study, based on pharmacokinetic data; cited from earlier work
structure (smiles),measurement,setting,value
"CC1=C(/C=C/C(C)=C/C=C/C(C)=C\C(=O)O)C(C)(C)CCC1 [13-cis RA, 13-cis-Retinoic Acid]",stimulating TGase II activity,[1],6.1 Fold
same,"TGase II assay, rat lung","[2]; High dose, 240 min daily, 14 days",8053 DPM/μg protein
same,"TGase II assay, rat lung","[2]; High dose: 1872 μg/kg total deposited, 240 min daily, 14 days",0.1025+/−0.004 picomoles/μg protein/30 min and 0.1025 ± 0.004 picomoles/μg protein/30 min
same,"TGase II assay, rat lung","[2]; Low dose, 5 min daily, 14 days, vehicle 3535",7503 DPM/μg protein
same,"TGase II assay, rat lung","[2]; Low dose: 39 μg/kg total deposited, 5 min daily, 14 days, vehicle 0.0450",0.0955+/−0.004 picomoles/μg protein/30 min and 0.0955 ± 0.004 picomoles/μg protein/30 min
same,"TGase II assay, rat lung","[2]; Low-Middle dose, 15 min daily, 14 days",9035 DPM/μg protein
same,"TGase II assay, rat lung","[2]; Low-Middle dose: 117 μg/kg total deposited, 15 min daily, 14 days",0.1150+/−0.006 picomoles/μg protein/30 min and 0.1150 ± 0.006 picomoles/μg protein/30 min
same,"TGase II assay, rat lung","[2]; Middle dose, 45 min daily, 14 days",10449 DPM/μg protein
same,"TGase II assay, rat lung","[2]; Middle dose: 351 μg/kg total deposited, 45 min daily, 14 days",0.1330+/−0.009 picomoles/μg protein/30 min and 0.1330 ± 0.009 picomoles/μg protein/30 min
same,"TGase II assay, rat lung","[2]; Middle-High dose, 120 min daily, 14 days",8014 DPM/μg protein
same,"TGase II assay, rat lung","[2]; Middle-High dose: 936 μg/kg total deposited, 120 min daily, 14 days",0.1020+/−0.005 picomoles/μg protein/30 min and 0.1020 ± 0.005 picomoles/μg protein/30 min
same,stimulation of lung TGase activity,"[2]; maximum, inhaled dose 1012.3 μg/kg (45 minutes of inhalation), 14 days",2.9 Fold
same,stimulation of lung TGase activity,[2]; with larger amounts of inhaled retinoid,1.2 fold
same,"TGase II assay, rat liver",[3]; High dose,19719 DPM/μg protein
same,"TGase II assay, rat liver",[3]; High dose: 1872 μg/kg total deposited,0.271+/−0.015 picomoles/μg protein/30 min and 0.271 ± 0.015 picomoles/μg protein/30 min
same,"TGase II assay, rat liver","[3]; Low dose, vehicle 20426",22705 DPM/μg protein
same,"TGase II assay, rat liver","[3]; Low dose: 39 μg/kg total deposited, vehicle 0.260",0.289+/−0.007 picomoles/μg protein/30 min and 0.289 ± 0.007 picomoles/μg protein/30 min
same,"TGase II assay, rat liver",[3]; Low-Middle dose,21448 DPM/μg protein
same,"TGase II assay, rat liver",[3]; Low-Middle dose: 117 μg/kg total deposited,0.273+/−0.018 picomoles/μg protein/30 min and 0.273 ± 0.018 picomoles/μg protein/30 min
same,"TGase II assay, rat liver",[3]; Middle dose,24590 DPM/μg protein
same,"TGase II assay, rat liver",[3]; Middle dose: 351 μg/kg total deposited,0.313+/−0.025 picomoles/μg protein/30 min and 0.313 ± 0.025 picomoles/μg protein/30 min
same,"TGase II assay, rat liver",[3]; Middle-High dose,20348 DPM/μg protein
same,"TGase II assay, rat liver",[3]; Middle-High dose: 936 μg/kg total deposited,0.269+/−0.015 picomoles/μg protein/30 min and 0.269 ± 0.015 picomoles/μg protein/30 min
same,effect of inhaled 13-cis RA on liver TGase II activity,"[3]; rat, up to 5.93 mg/kg of inhaled dose",without significant effect; also recorded: fails to significantly alter; also recorded: no significant effect
same,upregulation of lung tissue RAR γ over solvent (vehicle),[4],3.7 fold
same,Efficacy (Carcinogen),[5]; 200 mg/kg weekly ingested (po),No (urethane)
same,Efficacy (Carcinogen),[5]; 400 mg/kg weekly ingested (po),No (urethane)
same,prevention of urethane-induced lung cancer,"[5]; orally administered, over 300 mg/kg weekly, A/J mouse model",failed to prevent
same,steady-state blood levels,[6],100 to 200 ng/mL
